According to patent US20240065971A1, “METHODS OF TREATING ABC-DLBCL USING INHIBITORS OF BRUTONS TYROSINE KINASE” (Pharmacyclics LLC, priority 2010, published 2024):

Experiments:
OCI-Ly10 cells [1] = details: 10 nM, up to 4 hours
OCI-Ly10 cells [2] = assay: RT-PCR (Taqman) of NF-kB target genes; assay type: cell-based; details: 100 nM, 4 hrs
OCI-Ly3 cells [3] = assay: IgM/IgG stimulated calcium flux (Fura-2AM); assay type: cell-based; details: OCI-Ly3, inhibitor added 5 min before stimulation
Description: (§1) The kinetics of calcium flux were quantitated by optical spectroscopy following standard procedures.

OCI-Ly10 cells [4] = assay: IgM/IgG stimulated calcium flux (Fura-2AM); assay type: cell-based; details: OCI-Ly10, inhibitor added 5 min before stimulation
Description: as §1

[5] = system: OCI-Ly10 tumor xenografts; assay: OCI-Ly10 tumor xenografts in female SCID mice; assay type: in vivo; details: once a day 3 mg/kg or 12 mg/kg, vs vehicle
Description: Female SCID mice were implanted with 10 million […] cells in Matrigel and tumors were allowed to reach 100 mm^3.

OCI-Ly10 cells [6] = assay: Dose response of p-ERK by Western blotting; assay type: cell-based
OCI-Ly3 cells [7] = details: 10 nM, up to 4 hours
OCI-Ly10 cells [8] = assay: Constitutive IL-10 secretion by ELISA; assay type: cell-based

Row | Structure (SMILES) | Phosphorylation of AKT (OCI-Ly10 cells [1]) | Phosphorylation of ERK (OCI-Ly10 cells [1]) | Myc expression (OCI-Ly10 cells [2]) | calcium flux after stimulation (OCI-Ly3 cells [3]) | calcium flux after stimulation (OCI-Ly10 cells [4]) | tumor growth [5] | concentration that decreases p-ERK (OCI-Ly10 cells [6]) [nM] | Phosphorylation of AKT (OCI-Ly3 cells [7]) | Constitutive IL-10 secretion (OCI-Ly10 cells [8])
1 | C=CC(=O)N1CCC[C@@H](n2nc(-c3ccc(Oc4ccccc4)cc3)c3c(N)ncnc32)C1 [Btk inhibitor] | rapidly abolished | rapidly abolished | maximally downregulated | dose-dependent reduction | dose-dependent reduction | dose-dependent inhibition | 1 | inhibited | inhibited
2 | CC[C@H](Nc1ncnc2[nH]cnc12)c1nc2cccc(F)c2c(=O)n1-c1ccccc1 [CAL-101, reference compound] |  |  |  |  |  |  | 100 |  | 
